Measured values taken from US20260193242A1, “USEFUL COMPOUNDS FOR MODULATING INFLAMMATION” (FLAGSHIP PIONEERING INNOVATIONS VI, LLC, priority 2022, published 2026).

Assays:
[1] = test system: R848-driven NFκB reporter (SEAP) in THP-1 cells; test: TLR7/8 (R848) stimulated NFκB reporter gene assay in THP1-Dual cells; type: cell-based; settings: Homo sapiens, THP-1, 10 μM compound, 1 μM R848, THP1-Dual cells; read-out: R848-driven NFκB reporter gene assay (Percent inhibition at 10 μM)
Method: (§1) Compounds described herein are added to the human leukemic monocyte-like cell line THP-1 for bioactivity assessment. THP1-Dual cells (InvivoGen, San Diego, CA) feature the Lucia gene, a secreted luciferase reporter gene, under the control of an ISG54 minimal promoter in conjunction with five IFN-stimulated response elements. THP1-Dual cells also express a secreted embryonic alkaline phosphatase (SEAP) reporter gene driven by an IFN-β minimal promoter fused to five copies of the NF-κB consensus transcriptional response element and three copies of the c-Rel binding site. As a result, THP1-Dual cells allow the simultaneous study of the NF-κB pathway, by monitoring the activity of SEAP, and the IRF pathway, by assessing the activity of Lucia luciferase.
(§2) THP-1 dual reporter cells were grown in RPMI 1640 culture medium with 2 mM L-glutamine, 25 mM HEPES, 10% heat-inactivated fetal bovine serum, 100 μg/ml Normocin antibiotic (InvivoGen), Pen-Strep antibiotic (100 U/ml-100 μg/ml, InvivoGen). On the day of the assay, cells were seeded in a 384 flat-bottom well plate at 25,000 cells/well and incubated for 2 hours. Cells were then incubated with 10 μM of the compounds described herein or with 1 μM of IKK-16 (Selleck), a potent inhibitor of IκB kinases (IKKs) or with DMSO (vehicle control) for 2 hours, followed by the addition of the synthetic TLR7/8 agonist R848 at 1 μM and incubation for 16 hours. After incubation was concluded, the cultures supernatants were collected and IRF related activity was assessed by measurement of the Lucia luciferase, using Quanti-Luc assay (InvivoGen). NF-κB pathway activity was assessed by quantifying SEAP using Quanti-Blue assay (InvivoGen).

[2] = test system: R848-driven IRF reporter (Lucia luciferase, ISG54 promoter/IFN-stimulated response elements) in THP-1 cells; test: TLR7/8 (R848) stimulated interferon response element reporter gene assay in THP1-Dual cells; type: cell-based; settings: Homo sapiens, THP-1, 10 μM compound, 1 μM R848, THP1-Dual cells; read-out: R848-driven IRF reporter gene assay (Percent inhibition at 10 μM)
Method: as §1, §2

[3] = test system: TNBS-induced colitis, Balb/c mice; test: TNBS-induced model of colitis in mice, dosing from day 2, therapeutic mode; type: in vivo; settings: for IL-1B in plasma / IL-6 in plasma: dosing from day 2, vs Vehicle group
Method: (§3) Female Balb/c mice aged 8 weeks and weighing 18-20 g were housed under standard conditions. The mice were divided into groups with 8-10 mice in each group by body weight. Mice in sham group received intracolonic injection with 50% ethanol (0.1 mL) at day 0, whereas mice in other Trinitrobenzene sulfonic acid (TNBS) colitis model groups received intracolonic injection of 2% TNBS solution in ethanol (0.1 mL) at day 0. The reference compound Mesalazine (Selleck) and test articles described here were dosed from day-1 to day 6. Day 6 was the endpoint, and samples were immediately harvested for the last endpoint. Mesalazine was dissolved in distilled water (pH 7.0) and test articles were dissolved in Phosal 50 PG for delivery by oral gavage.
(§4) Body weight and Disease Activity Index (DAI) scores were recorded daily to assess the colitis. DAI score was the sum of the weight loss score, stool score and bleeding sub-scores. A blinded scoring system was employed to assess the colitis. The DAI scorer blinded to the group information and animal ID was responsible for the stool consistency and bleeding evaluations. If there was no blood visible with naked eyes, the Fecal occult blood (FOB) test was performed with a fecal occult blood test strip (the improved pyramidon method).
(§5) Colon tissue morphology, damage and healing were assessed by histopathology. The colons were harvested, mesentery and adipose tissue were carefully removed, and internal contents were removed by rinsing with cold PBS. The colons were Swiss-rolled and fixed in neutralized paraformaldehyde followed by H&E staining. Clinical pathologists reviewed the H&E staining and scored blinded with animal ID. The pathological scoring standards were: crypt architecture (normal, 0-severe crypt distortion with loss of entire crypts, 3), degree of inflammatory cell infiltration (normal, 0-dense inflammatory infiltrate, 3), muscle thickening (base of crypt sits on the muscularis mucosae, 0-marked muscle thickening present, 3), goblet cell depletion (absent, 0-present, 1) and crypt abscess (absent, 0-present, 1).
(§6) The data was compared by ANOVA with post-hoc Dunnett's multiple comparisons test using Graph Pad Prism 7.0 software (San Diego, CA, USA). P-value<0.05 was considered as statistically significant difference. For pairwise comparison of histology scores and cytokines, unpaired t-test was used to calculate statistical significance. Data was expressed as mean±standard error of mean. In figures, statistical significance is denoted by asterisks: *p<0.05 **p<0.01 ***p<0.005, ****p<0.0001.
Procedures were identical to those in Example 26, except that dosing of the compounds described herein, as well as the positive control mesalamine, began on the second day after TNBS administration, as diagrammed in FIG. 18. Animals in this scenario have developed colitis symptoms before administration of test articles. This is more similar to the clinical scenario with patients with inflammatory bowel disorder presenting with symptoms. For this reason, we refer to these conditions as “therapeutic mode”.

[4] = test system: TNBS-induced colitis, Balb/c mice; test: TNBS-induced model of colitis in mice, dosing from day -1, prophylactic mode; type: in vivo; settings: for pathological score (crypt structure failure, inflammatory cell infiltration): H&E colon; for IL-1ß in plasma / IL-6 in plasma: vs Vehicle group
Method: as §3
As noted, dosing of the compounds described herein, as well as the positive control mesalamine, began one day before TNBS administration. Animals in this scenario have not yet developed colitis symptoms before administration of test articles. For this reason, we refer to these conditions as “prophylactic mode”.
as §4, §5
The plasma was collected at Day-1 for PK and cytokine (IL-1ß and IL-6) analysis by mandibular venipuncture.
as §6

[5] = test system: LPS induced septic shock, C57/B6L mice; test: LPS induced septic shock model in mice; type: in vivo
Method: In the LPS induced septic shock model in mice, the TLR4 agonist LPS is injected into the peritoneal cavity of mice, inducing production of pro-inflammatory cytokines that can be measured in blood two hours later (FIG. 2).
Female C57/B6L mice, 5 mice in each group, were injected with LPS (1 mg/kg) to induce septic shock 30 minutes after oral administration of compounds described herein (formulated in Phosal 50) or the controls dexamethasone (formulated in saline), a corticosteroid, and MCC950 (formulated in 0.5% methylcellulose), an inflammasome inhibitor. The mice were euthanized 2 hours after LPS stimulation, and the whole blood was drawn, processed to plasma, and snap frozen. Cytokine levels in plasma were determined by cytometric bead array assay.

[6] = 30 mg/kg PO, QD, dosing from day 2
[7] = 30 mg/kg PO in Phosal 50, 30 min before LPS 1 mg/kg, plasma 2 hours after LPS, vs vehicle

COCCOCCOc1ccc(C2=N[C@H]([C@H]3CC[C@H](C(=O)O)N3C)CS2)c(O)c1 [Compound I-10, (2R,5R)-5-((R)-2-(2-hydroxy-4-(2-(2-methoxyethoxy)ethoxy)phenyl)-4,5-dihydrothiazol-4-yl)-1-methylpyrrolidine-2-carboxylic acid]
inhibition at 10 µM [1]: 14%
inhibition at 10 µM [2]: 3%

Nc1ccc(O)c(C(=O)O)c1 [Mesalazine, reference compound]
total histology scores ([3]; 100 mg/kg PO, QD, dosing from day 2): lower
body weight (% initial weight) recovery ([3]; 100 mg/kg, QD, dosing from day 2): faster recovery rate
IL-1B in plasma ([3]; 100 mg/kg, QD): decreased
IL-6 in plasma ([3]; 100 mg/kg, QD): decreased
total histology scores ([4]; 100 mg/kg PO, QD): lower
pathological score (crypt structure failure, inflammatory cell infiltration) ([4]; 100 mg/kg PO, QD): lower
body weight (% initial weight) recovery ([4]; 100 mg/kg, QD, day -1 to day 6): faster recovery rate
IL-1ß in plasma ([4]; 100 mg/kg, QD): decreased
IL-6 in plasma ([4]; 100 mg/kg, QD): decreased

CNC(=O)[C@H]1CC[C@@H]([C@@H]2CSC(c3ccccc3O)=N2)N1C [Compound I-5, (2R,5S)-5-((R)-2-(2-hydroxyphenyl)-4,5-dihydrothiazol-4-yl)-N,1-dimethyl pyrrolidine-2-carboxamide]
inhibition at 10 µM [1]: 27%
inhibition at 10 µM [2]: 17%

C[C@@H]1C[C@H]2[C@@H]3CCC4=CC(=O)C=C[C@]4(C)[C@@]3(F)[C@@H](O)C[C@]2(C)[C@@]1(O)C(=O)CO [dexamethasone, reference compound]
activity on plasma cytokines (positive control) ([5]; 1.5 mg/kg PO, formulated in saline): active

CN1[C@@H](C(=O)O)CC[C@@H]1[C@@H]1CSC(c2ccccc2O)=N1 [Compound I-3, (2R,5R)-5-((R)-2-(2-hydroxyphenyl)-4,5-dihydrothiazol-4-yl)-1-methylpyrrolidine-2-carboxylic acid]
Disease Activity Index (DAI) scores [3, 6]: improvement
body weight (% initial weight) recovery [3, 6]: faster recovery rate
total histology scores [3, 6]: lower
IL-1B in plasma ([3]; 30 mg/kg PO, QD): decreased
IL-6 in plasma ([3]; 30 mg/kg PO, QD): decreased
colon recovery and mucosal healing ([3]; therapeutic mode): promoted the colon recovery and mucosal healing
inhibition at 10 µM [1]: 40%
IFNγ in plasma [5, 7]: statistically significant decreases
IL-12p70 in plasma [5, 7]: statistically significant decreases
TNFα in plasma [5, 7]: statistically significant decreases
inhibition at 10 µM [2]: ≥ 50%
body weight (% initial weight) recovery ([4]; 30 mg/kg, PO, QD, day -1 to day 6): faster recovery rate
total histology scores ([4]; 1, 3, 10 and 30 mg/kg PO, QD): lower
Disease Activity Index (DAI) scores ([4]; 1, 3, 10 and 30 mg/kg PO, QD, day -1 to day 6): dose-dependent improvement
IL-1ß in plasma ([4]; 1, 3, 10 and 30 mg/kg PO, QD): decreased
IL-6 in plasma ([4]; 1, 3, 10 and 30 mg/kg PO, QD): decreased
pathological score (crypt structure failure, inflammatory cell infiltration) ([4]; 1, 3, 10 and 30 mg/kg PO, QD): lower
ED50 ([4]; Mus musculus, 144 h, PO, QD, day -1 to day 6, read-out: dose for half maximal effect or ED50 (DAI score at Day 6)): 15 mg/kg
colon recovery and mucosal healing ([4]; in a dose-dependent manner, prophylactic mode): promoted the colon recovery and mucosal healing

CN1[C@@H](C(=O)O)CC[C@H]1[C@@H]1COC(c2ccccc2O)=N1 [Compound I-2, (2R,5S)-5-((R)-2-(2-hydroxyphenyl)-4,5-dihydrooxazol-4-yl)-1-methylpyrrolidine-2-carboxylic acid]
inhibition at 10 µM [1]: 5%
inhibition at 10 µM [2]: 31%

COCCOCCOc1ccc(C2=N[C@H]([C@@H]3CC[C@H](C(=O)O)N3C)CS2)c(O)c1 [Compound I-8, (2R,5S)-5-((R)-2-(2-hydroxy-4-(2-(2-methoxyethoxy)ethoxy)phenyl)-4,5-dihydrothiazol-4-yl)-1-methylpyrrolidine-2-carboxylic acid]
inhibition at 10 µM [1]: ≥ 50%
inhibition at 10 µM [2]: ≥ 50%

CN1[C@@H](C(=O)O)CC[C@@H]1[C@@H]1COC(c2ncccc2O)=N1 [Compound I-11, (2R,5R)-5-((R)-2-(3-hydroxypyridin-2-yl)-4,5-dihydrooxazol-4-yl)-1-methylpyrrolidine-2-carboxylic acid]
inhibition at 10 µM [1]: 6%
inhibition at 10 µM [2]: 5%

CN1[C@@H](C(=O)O)CC[C@@H]1[C@@H]1COC(c2ccccc2O)=N1 [Compound I-1, (2R,5R)-5-((R)-2-(2-hydroxyphenyl)-4,5-dihydrooxazol-4-yl)-1-methylpyrrolidine-2-carboxylic acid]
inhibition at 10 µM [1]: 10%
inhibition at 10 µM [2]: 20%

COCCOCCOc1ccc(C2=N[C@H]([C@@H]3CC[C@H](C(=O)O)N3C)CO2)c(O)c1 [Compound I-7, (2R,5S)-5-((R)-2-(2-hydroxy-4-(2-(2-methoxyethoxy)ethoxy)phenyl)-4,5-dihydrooxazol-4-yl)-1-methylpyrrolidine-2-carboxylic acid]
inhibition at 10 µM [1]: 28%
inhibition at 10 µM [2]: ≥ 50%
